# Counter-ions that a name gives are not always drawn. Like-named read-outs stand apart in the source and are kept apart here.
# Assays:
# [1] = cited from earlier work
# Chinese hamsters = conditions: cited from earlier work
# rat hepatocytes = conditions: cited from earlier work
# mice [2] = conditions: cited from earlier work
# mammalian cell mutation = conditions: cited from earlier work
# [3] = tested on: Chinese hamster ovary cells; conditions: cited from earlier work
# [4] = cited from earlier work; remark: listed apart in the source
# bacterial mutagenesis = conditions: with and without metabolic activation; cited from earlier work
# rats = conditions: female rats given 279 mg/kg, 2 years; cited from earlier work
# uterus = conditions: clinical studies; cited from earlier work
# [5] = oral, cited from earlier work
# [6] = cited from earlier work; remark: listed apart in the source
# mice [7] = conditions: cited from earlier work; remark: listed apart in the source
# [8] = cited from earlier work; remark: listed apart in the source
# postmenopausal women = conditions: cited from earlier work
# in vitro = conditions: human, topical or ocular
# women [9] = conditions: women taking the drug, MORE trial; cited from earlier work
# women [10] = conditions: cited from earlier work
molecule,measurement,setting,value
O=C1CC[C@@]2(O)[C@H]3Cc4ccc(O)c5c4[C@@]2(CCN3CC2CC2)[C@H]1O5 [Naltrexone],solubility in water,[1]; water,water soluble
"O=C(c1ccc(OCCN2CCCCC2)cc1)c1c(-c2ccc(O)cc2)sc2cc(O)ccc12 [Raloxifene.HCl, raloxifene hydrochloride]","genotoxicity, in vivo sister chromatid exchange assay",Chinese hamsters,not genotoxic
same,"genotoxicity, unscheduled DNA synthesis assay",rat hepatocytes,not genotoxic
same,"genotoxicity, in vivo micronucleus test",mice [2],not genotoxic
same,"genotoxicity, mouse lymphoma assay",mammalian cell mutation,not genotoxic
same,"genotoxicity, chromosomal aberration assay",[3],not genotoxic
same,increase in AUC with increasing doses,[4]; doses ranging from 30 to 150 mg,slightly less than a proportional increase
same,"genotoxicity, Ames test",bacterial mutagenesis,not genotoxic
O=C(c1ccc(OCCN2CCCCC2)cc1)c1c(-c2ccc(O)cc2)sc2cc(O)ccc12 [Raloxifene],incidence in ovarian tumors of granulosa/theca cell origin,rats,increased incidence
same,uterotrophic activity,uterus,does not have uterotrophic activity
same,absolute bioavailability,[5],2%
same,absolute bioavailability,[5]; listed as raloxifene,approximately 2%
same,increased incidence of VTE,[6]; oral,2-4 times
same,plasma antithrombin levels,[6]; raloxifene use,significant reduction
same,tPA levels,[6]; raloxifene use,significant reduction
same,incidence of ovarian tumors,"mice [7]; female mice given 9 to 242 mg/kg, 21 months",increased incidence
same,incidence of prostatic leiomyoblastoma,mice [7]; male mice given 210 mg/kg,increased incidence
same,"incidence of testicular interstitial cell tumors, prostatic adenomas, and adenocarcinomas",mice [7]; male mice given 41 or 210 mg/kg,increased incidence
same,log P,[8],5.749
same,fewer uterine cancers than those assigned to tamoxifen,postmenopausal women; STAR trial,36%
same,reduction of risk for invasive breast cancer,"postmenopausal women; postmenopausal women, STAR trial interim analysis",approximately 50%
same,water solubility,[1]; H2O,0.25 µg/mL
same,bioavailability at 3 wt %,in vitro,~1%
same,plasma elimination half-life,[4]; after oral dosing,27.7 h
same,clearance rate,[4]; following intravenous administration,approximating hepatic blood flow
same,incidence of breast cancer compared with controls,women [9],lower incidence
estrogen,VTE rates compared to placebo group,women [10]; estrogen transdermally,no significant difference
same,risk of VTE compared to a placebo group,"women [10]; oral estrogen, 95 percent CI 1.8-6.8",3.5 fold

# Reference: US20080139513A1, “TRANSDERMAL DELIVER OF ACTIVE AGENTS” (Novavax, Inc., priority 2006, published 2008)
